Patent US8840899B2, “Use of mTOR inhibitors to enhance T cell immune responses” (priority 2008, dated 2014)
“Also recorded” adds a separate entry of the source. Read-outs that look alike come from different tables or passages of the source.

How the values were obtained:
[1] = system: vaccinia virus (VV) that expresses the GP33 epitope (VVgp33); parameters: species or system mice; details: mouse, in vivo
[2] = system: virus-specific CD8^+ T cells; parameters: species or system mice; details: mouse, in vivo
[3] = system: vaccinia virus-specific CD8^+ T cells; parameters: species or system Rhesus macaques (Macaca mulatta); details: rhesus monkey, in vivo
[4] = rhesus macaques, approximately 10-50 μg/kg/day intramuscularly
[5] = system: LCMV-specific CD8^+ T cells (P14 cells); parameters: species or system mice; details: mouse, in vivo
[6] = system: antigen-specific CD8^+ T cells; parameters: species or system mice; details: mouse, in vivo
[7] = system: virus-specific CD8^+ T cells; parameters: species or system mice; details: mouse, in vivo; remark: listed apart in the source
[8] = mice
[9] = system: virus-specific memory CD4^+ T cells; parameters: species or system mice; details: mouse, in vivo
[10] = system: P14 memory cells; assay type: in vivo, mice
[11] = system: LCMV; parameters: species or system mice; details: mouse, in vivo
[12] = system: FKBP12 RNAi retrovirus transduced P14 cells; parameters: species or system mice; details: mouse, in vivo
[13] = system: CD62L^low effector CD8^+ T cells (P14 cells); assay type: in vivo, mice
[14] = system: GP33 epitope-specific CD8^+ T cells; assay type: in vivo, mice
[15] = system: virus-specific CD8^+ T cells; parameters: species or system mice; details: mouse, in vivo; remark: listed apart in the source
[16] = system: DbGP33 tetramer-positive CD8^+ T cells; experiment: rAd5-LCMV-GP vaccination with low dose rapamycin; assay type: in vivo, mice
Experimental: Mice were vaccinated with rAd5-LCMV-GP (1×10^10 viral particles) by intramuscular injection on Day 0 and either left untreated or treated with rapamycin at a dose of 0.075 mg/kg from Day −1 to Day 34 (FIG. 19A). The number of DbGP33 tetramer-positive CD8^+ T cells in the spleen of treated and untreated mice was determined by FACS on Day 35 post-vaccination. […] The phenotype of virus-specific CD8^+ T cells was also evaluated by FACS (FIG. 19C).

[17] = system: P14 memory T cells; assay type: in vivo; details: VVGP33 challenge, vs memory cells of untreated mice
[18] = system: virus-specific CD8^+ T cells; parameters: species or system mice; details: mouse, in vivo; remark: listed apart in the source
[19] = system: GP33 epitope-specific memory CD8^+ T cells (P14 cells); experiment: Rapamycin during T cell maintenance phase, adoptively transferred CFSE-labeled memory P14 cells; assay type: in vivo, mice
[20] = system: DbGP33 tetramer-positive P14 cells; assay type: in vivo, mice
[21] = system: P14 cells; assay type: in vivo, mice
[22] = system: FKBP12; assay type: cell-based, mice; details: GFP^+ P14 cells, Day 7 or 8 post-infection
[23] = system: LCMV-specific P14 transgenic CD8^+ T cells; parameters: species or system mice; details: mouse, in vivo
[24] = system: raptor; assay type: cell-based, mice; details: GFP^+ P14 cells, Day 7 or 8 post-infection
[25] = Day 31 post-infection, spleen, relative to control

CO[C@H]1C[C@@H]2CC[C@@H](C)[C@@](O)(O2)C(=O)C(=O)N2CCCC[C@H]2C(=O)O[C@H]([C@H](C)C[C@@H]2CC[C@@H](O)[C@H](OC)C2)CC(=O)[C@H](C)/C=C(\C)[C@@H](O)[C@@H](OC)C(=O)[C@H](C)C[C@H](C)/C=C/C=C/C=C/1C [rapamycin, (3S,6R,7E,9R,10R,12R,14S,15E,17E,19E,21S,23S,26R,27R,34aS)-9,10,12,13,14,21,22,23,24,25,26,27,32,33,34,34a-hexadecahydro-9,27-dihydroxy-3-[(1R)-2-[(1S,3R,4R)-4-hydroxy-3-methoxycyclohexyl]-1-methylethyl]-10,21-dimethoxy-6,8,12,14,20,26-hexamethyl-23,27-epoxy-3H-pyrido[2,1-c][1,4]-oxaazacyclohentriacontine-1,5,11,28,29(4H,6H,31H)-pentone]
protective immunity (viral control) [1]: better | viral titer in the ovaries [1]: reduction in viral titer | percentage of virus-specific CD8^+ T cells (DbGP33 tetramer) in PBMCs [2]: 2.49% | T cell contraction [3]: slower | number of memory CD8^+ T cells maintained [3]: higher number | Blood levels of rapamycin [4]: 5 to 15 ng/mL | expression of CD127 and CD62L on LCMV-specific CD8^+ T cells [5]: enhanced expression | percentage of virus-specific CD8^+ T cells in PBMCs [5]: greater | recall responses [5]: enhanced | incorporation of BrdU by antigen-specific CD8^+ T cells [6]: minimal incorporation | Bcl-2 expression of virus-specific CD8^+ T cells in lymph node [7]: higher than control | cell surface markers of virus-specific CD8^+ T cells in lymph node [7]: no significant change | number of memory cells generated [7]: not affected | number of virus-specific CD8^+ T cells in the spleen [7]: did not reduce | number of virus-specific CD8^+ T cells with phenotype of highly functional memory cells [7]: significantly higher number | phenotype of GP33, GP276 and NP396 epitope-specific CD8^+ T cells in spleen [7]: high quality memory T cells (CD127^High, CD62L^High, KLRG-1^Low, CD27^High, Bcl-2^High) | blood concentration ([8]; 0.6 mg/kg (600 μg/kg) intraperitoneally daily): 40 to 100 ng/mL | blood concentration ([8]; low dose 0.075 mg/kg (75 μg/kg) daily): 5 to 20 ng/mL | number of IFN-γ^+ CD4^+ T cells upon GP61 peptide stimulation [9]: higher number of IFN-γ^+ cells | percentage of P14 memory cells that divided more than twice in spleen ([10]; 30 days post-transfer, control 36.8%): 46.1% | percentage of divided memory T cells in PBMC ([10]; memory cells from rapamycin-treated mice (Example 1), up to 30 days post-transfer): increased | homeostatic proliferation of memory CD8^+ T cells generated with rapamycin ([10]; rapamycin Day -1 to Day 33, 30 days post transfer, vs memory cells of untreated mice): superior | LCMV titer relative to untreated mice [11]: significantly increased | effect of rapamycin treatment on phenotype / memory differentiation of FKBP12 knockdown P14 cells [12]: diminished; also recorded: almost disappeared | expression of memory markers (CD127, CD62L, Bcl2) on FKBP12 knockdown P14 cells under rapamycin [12]: did not show increased expression | CD62L re-expression on transferred virus-specific CD8^+ T cells ([13]; 0.6 mg/kg daily after transfer, blood/PBMC, vs control mice): quickly re-expressed CD62L; also recorded: re-expressed CD62L much faster | absolute number of CD62L^High virus-specific CD8^+ T cells in spleen ([13]; 0.6 mg/kg daily, Day 26 post-transfer, vs untreated): greater | cell division during CD62L re-expression (CFSE) ([13]; effector to memory transition phase after transfer): no or minimal cell division; also recorded: no cell division | phenotype of antigen-specific CD8^+ T cells from spleen ([14]; 34 days post-immunization): markers of high quality memory T cells (CD127^High, CD62L^High, KLRG-1^Low, Bcl-2^High) | memory T cell numbers relative to control ([14]; 165 days after stopping the drug treatment): 10 fold | number of antigen-specific CD8^+ T cells maintained ([14]; PBMC and spleen (Day 34), vs control): higher number | expansion of GP33 epitope-specific CD8^+ T cells after VLP immunization ([14]; low dose rapamycin from Day -1, PBMC, vs control): expanded similarly | magnitude and quality of VLP-induced memory CD8^+ T cells ([14]; mouse, in vivo): enhanced both the magnitude and the quality | Bcl-2 expression in Day 8 effector CD8^+ T cells [15]: higher levels | death of effector CD8^+ T cells during contraction phase [15]: only minimal death | phenotype of memory CD8^+ T cells [15]: similar | proportion of CD127^High KLRG-1^Low cells among Day 8 effector CD8^+ T cells [15]: higher proportion | number of virus-specific (DbGP33 tetramer-positive) CD8^+ T cells in spleen ([16]; 0.075 mg/kg Day -1 to Day 34, Day 35 post-vaccination): significantly increased | phenotype of virus-specific CD8^+ T cells ([16]; 0.075 mg/kg Day -1 to Day 34, spleen Day 35): markers of high quality memory T cells (CD127^High, CD62L^High, KLRG-1^Low, Bcl-2^High) | recall responses of memory CD8^+ T cells generated with rapamycin [17]: superior | LCMV-specific CD8^+ T cell response [18]: enhanced | contraction of the T cell response [18]: minimal contraction | expression of CD127, CD62L, and Bcl-2 on memory CD8^+ T cells [18]: higher levels | frequency of KLRG-1^Low memory CD8^+ T cells [18]: higher frequency | number of GP33 epitope-specific CD8^+ T cells in PBMCs [18]: higher number | number of epitope-specific CD8^+ T cells (GP33, GP276, NP396, NP205, GP118) in spleen [18]: enhanced the number | numbers of antigen-specific CD8^+ T cells in lymphoid and non-lymphoid tissues [18]: Increased numbers | phenotype of virus-specific CD8^+ T cells [18]: CD127^High CD62L^High KLRG-1^Low Bcl-2^High phenotype | number of virus-specific CD8^+ T cells in the spleen ([19]; 0.6 mg/kg daily from Day -1, Day 42 post-transfer, vs untreated): decreased | percentage of virus-specific CD8^+ T cells that divided more than twice (CFSE) ([19]; 0.6 mg/kg daily, Day 42 post-transfer, untreated 42.5%): 17.8% | absolute number of DbGP33 tetramer-positive P14 cells in spleen ([20]; Day 5 post-challenge, vs untreated): greater | recall responses of memory CD8^+ T cells differentiated with rapamycin ([20]; rapamycin 25 days, VVGP33 challenge Day 28 post-transfer): better | percentage of DbGP33 tetramer-positive P14 cells in the spleen ([20]; rapamycin for 25 days, VVgp33 challenge Day 28, Day 5 post-challenge, untreated 1.69%): 4.93% | number of virus-specific CD8^+ T cells (P14) in spleen ([21]; 0.6 mg/kg daily from Day 8 after VV infection, Day 31, vs control): similar | expression of CD27 and Bcl-2 on virus-specific CD8^+ T cells [21, 25]: higher | expression of KLRG-1 on virus-specific CD8^+ T cells [21, 25]: lower | CD127 and CD62L expression on virus-specific CD8^+ T cells ([21]; Day 31 post-infection, spleen, vs control): no significant difference

FKBP12 shRNA (guide GCCAAACTGATAATCTCCTCA)
Expression of FKBP12 protein [22]: significantly reduced

raptor shRNA (guide GCCCGAGTCTGTGAATGTAAT)
expression of phenotypic markers on antigen-specific T cells [23]: identical to what was observed upon knockdown of mTOR | virus-specific memory T cell phenotype in spleen [23]: high quality memory T cell phenotype (CD127^High, CD62L^high KLRG-1^Low) | Expression of raptor protein [24]: significantly reduced
